Experimental findings from patent publication US4310590A (priority 1979, dated 1982) are described below.

The MIC is the smallest concentration in the dilution series that meets the test's criterion for growth inhibition.

The structures appear in SMILES notation. In brackets after ≈: the same amount, converted by molar mass.

The test system of one test is A. niger. Description: Serial Dilution Test (Broth Titer Test), antifungal, A. niger. The conditions noted are these: in vitro serial dilution test; for MIC: Aspergillus niger, read-out: SDT, MIC. It counts as cell-based, Aspergillus niger. The method, then: (§1) Antibacterial and antifungal activity were evaluated by the Serial Dilution Test (Broth Titer Test) wherein a series of broths containing varying dilutions of a test compound and an organism are halved starting with 1:1,000. The values shown represent the maximum dilution in parts per million at which the compound under evaluation renders complete control of the organism. Pseudomonas aeruginosa (P), Staphylococcus aureus (S), and Escherichia coli (E) were the bacterial organisms employed in this test, and the fungi employed were Aspergillus niger (A) and Rhizopus stolonifer (R).
(§2) ^a In vitro serial dilution test (SDT), minimum inhibitory
(§3) concentrations (MIC) against E = E. coli, P = Ps. aeruginosa, S =
(§4) Staphylococcus aureus, A = A. niger, and R = Rhizopus stolonifer are give
(§5) in parts per million of a biocide.

For a further test, the system named is E. coli. Description: Serial Dilution Test (Broth Titer Test), antibacterial, E. coli. It counts as cell-based, Escherichia coli. The conditions noted are these: for SDT, MIC: in vitro serial dilution test, E = E. coli; for MIC: Escherichia coli, read-out: SDT, MIC. The method, then:
as §1, §2, §3, §4, §5

For the next test, the system named is Ps. aeruginosa. Description: Serial Dilution Test (Broth Titer Test), antibacterial, Ps. aeruginosa. The class given is cell-based, Pseudomonas aeruginosa. The conditions noted are these: for SDT, MIC: in vitro serial dilution test, P = Ps. aeruginosa; for MIC: Pseudomonas aeruginosa, read-out: SDT, MIC. The method, then:
as §1, §2, §3, §4, §5

For test [1], the system named is Puccinia graminis f. sp. tritici. Description: whole plant or invertebrate. It counts as in vivo, Puccinia graminis f. sp. tritici race 15B-2.
The subject of the next test is Piricularia oryzae. Description: whole plant or invertebrate. It counts as in vivo. The conditions noted are these: for Disease Control Level, RB: 150 ppm.
A further test relates to Staphylococcus aureus. Description: Serial Dilution Test (Broth Titer Test), antibacterial, Staphylococcus aureus. The class given is cell-based. To be noted: for SDT, MIC: in vitro serial dilution test, S = Staphylococcus aureus; for MIC: Staphylococcus aureus, read-out: SDT, MIC. On the procedure: as §1, §2, §3, §4, §5
The subject of a further test is Rhizopus stolonifer. Put plainly: Serial Dilution Test (Broth Titer Test), antifungal, Rhizopus stolonifer. The class given is cell-based. The conditions noted are these: in vitro serial dilution test, R = Rhizopus stolonifer; for MIC: read-out: SDT, MIC. The method, then: as §1, §2, §3, §4, §5
Another test has as its system Plasmopora viticola. Put plainly: whole plant or invertebrate. To be noted: for Disease Control Level, GDM: 150 ppm; for pest or weed control at 300 ppm: read-out: Disease Control Level, GDM. The class given is in vivo.
Another test deals with Botrytis cinerea. Description: whole plant or invertebrate. The class given is in vivo. To be noted: for pest or weed control at 300 ppm: Botrytis cinerea, read-out: Disease Control Level, BOT.
The subject of a further test is Phytophthora infestans. Put plainly: whole plant or invertebrate. It counts as in vivo. To be noted: Phytophthora infestans, in Solanum lycopersicum, read-out: Disease Control Level, TLB.
In the next test the test system is Helminthosporium teres. Put plainly: whole plant or invertebrate. The conditions noted are these: Pyrenophora teres, in Hordeum vulgare; 300 ppm; read-out: Disease Control Level, BH. It counts as in vivo.
A further test has as its system Erysiphe polygoni. Description: whole plant or invertebrate. The class given is in vivo. The conditions noted are these: read-out: Disease Control Level, BPM.
Where [2] appears, read: Puccinia graminis, read-out: Disease Control Level, WSR.
Setting [3] is: Pyricularia oryzae, read-out: Disease Control Level, RB.

In the case of `Cc1c(SC(=S)N(C)C)sn(-c2ccc(Br)cc2)c1=O` [Example 8], the “SDT, MIC” value is recorded as 500 PPM in the test on A. niger; 500 PPM in the test with E. coli; 500 PPM in the test on Ps. aeruginosa; 500 PPM in the test with Staphylococcus aureus; 250 PPM with Rhizopus stolonifer. Besides, in test [1] (150 ppm, wheat seedlings), the “Disease Control Level, WSR” value was “C/C”. For the same compound, the “Disease Control Level, RB” value with Piricularia oryzae is listed as “A/E”. The “Disease Control Level, GDM” value in the test on Plasmopora viticola is “A/B”.

Turning to `Cc1c(SC(=S)N(C)C)sn(-c2ccc(Cl)cc2)c1=O` [Example 9], the “SDT, MIC” value is given as 500 PPM in the test with A. niger; 500 PPM with E. coli; 500 PPM with Ps. aeruginosa; 500 PPM in the test with Staphylococcus aureus; 250 PPM in the test with Rhizopus stolonifer. Moreover, the “Disease Control Level, BOT” value in the test with Botrytis cinerea (150 ppm) is given as “C/C”. Also, the “Disease Control Level, RB” value with Piricularia oryzae is recorded as “A/A”. Moreover, in the test with Plasmopora viticola, the “Disease Control Level, GDM” value is reported as “A/E”.

For `Cc1c(SC(=S)N(C)C)sn(C2CCCCC2)c1=O` [Example 11], the MIC with A. niger is 500 µg/mL (≈ 1580 µM); in the test with E. coli, 500 µg/mL (≈ 1580 µM); in the test with Ps. aeruginosa, 500 µg/mL (≈ 1580 µM); in the test with Staphylococcus aureus, 500 µg/mL (≈ 1580 µM); in the test with Rhizopus stolonifer it was 250 µg/mL (≈ 790 µM). For the same compound, the pest or weed control at 300 ppm was 50% with Phytophthora infestans; 50% with Helminthosporium teres; 50% in the test with Erysiphe polygoni; 70 to 89% in test [1] (setting [2]); 50% in the test with Botrytis cinerea; 50% in the test on Piricularia oryzae (setting [3]). The pest or weed control at 300 ppm in the test with Plasmopora viticola was found to be 50%.

On to `O=c1cc(N2CCCCC2)sn1CCc1ccccc1` [Example 14, 5-Piperidino-2-phenethyl-4-isothiazolin-3-one], for which the MIC in the test with A. niger stood at 250 µg/mL (≈ 867 µM); in the test on E. coli, 500 µg/mL (≈ 1730 µM); with Ps. aeruginosa, 500 µg/mL (≈ 1730 µM); in the test on Staphylococcus aureus it was 500 µg/mL (≈ 1730 µM); in the test on Rhizopus stolonifer, 125 µg/mL (≈ 433 µM). In addition, the pest or weed control at 300 ppm in the test on Phytophthora infestans was 50%; in the test with Helminthosporium teres, 50%; in the test with Erysiphe polygoni, 50%; in test [1] (setting [2]) it was 97 to 100%; in the test with Botrytis cinerea, 50%; in the test on Piricularia oryzae (setting [3]) it was 97 to 100%. The pest or weed control at 300 ppm in the test on Plasmopora viticola was found to be 50%. Further, the pest or weed control at 38 ppm (in test [1] (setting [2]); with Piricularia oryzae (setting [3])) was 50% each time. The pest or weed control at 75 ppm in [1] (setting [2]) is 50%; in the test on Piricularia oryzae (setting [3]), 97 to 100%. Also, in [1] (setting [2]), the pest or weed control at 150 ppm stood at 50%. Besides, in the test with Piricularia oryzae, the “Disease Control Level, RB” value is “A/E”.
